Assay results taken from patent US20150152064A1, “METHODS AND COMPOSITIONS OF TREATING A FLAVIVIRIDAE FAMILY VIRAL INFECTION” (The Board of Trustees of the Leland Stanford Junior …, priority 2007, published 2015).

Experiment: in vitro
Type: cell-based
Conditions: human, huh-7.5 cells
Procedure: Luciferase assays are performed at about 48 hr to about 72 hr or 96 hr.
After a 5-30 min recovery at about 25° C., pulsed cells are diluted into 2-25 ml of prewarmed growth medium. […] Untreated cells are used as a negative control for water soluble compounds. […] Medium is changed daily.
Following about 48, about 72, or about 96 hrs of treatment, cells are incubated for 1-5 hrs at about 37° C. in the presence of 1-20% Alamar Blue reagent (TREK Diagnostic Systems).

## Cc1ccc(Cn2ncc3ccccc32)cc1 [Compound 185]
  viability at 5 µM: ≥ 90%
  viability at 10 µM: ≥ 90%
